Among the data in the NIST ThermoML archive (doi:10.1021/je1001945) are Normal melting temperature values, retold here.

The conditions of this data set: Crystal; visual observation.

Numbers after ± are expanded uncertainties.

Take `c1ccc2cc3ccccc3cc2c1` [anthracene]: the Normal melting temperature was found to be 215 ± 1 °C.
